Biological target: T1, human CCR-3 (Homo sapiens, UniProt P51677)
T1 construct: expressed in transfected cells; host or cells: rat basophil leukaemia (RBL-2H3) cells, membrane preparation
T1 sequence (P51677 1-355): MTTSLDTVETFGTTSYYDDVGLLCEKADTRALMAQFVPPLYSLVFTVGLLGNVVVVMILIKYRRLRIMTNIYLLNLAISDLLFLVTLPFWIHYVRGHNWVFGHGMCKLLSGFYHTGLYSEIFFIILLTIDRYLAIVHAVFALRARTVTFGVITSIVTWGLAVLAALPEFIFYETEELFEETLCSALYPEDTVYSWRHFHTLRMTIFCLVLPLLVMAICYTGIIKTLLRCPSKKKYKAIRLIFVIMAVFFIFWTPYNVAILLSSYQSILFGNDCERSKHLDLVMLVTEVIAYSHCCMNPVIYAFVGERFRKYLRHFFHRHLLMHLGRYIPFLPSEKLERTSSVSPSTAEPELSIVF
Assay: [125I]-human eotaxin binding to CCR-3, SPA assay
Conditions: inhibition of [125I]-human eotaxin binding; membranes of RBL-2H3 cells stably expressing CCR3; 4 hours at room temperature
Text: Recombinant cells expressing human CCR-3 are captured by wheatgerm agglutinin (WGA) polyvinyltoluidene (PVT) SPA beads (available from Amersham), through a specific interaction between the WGA and carbohydrate residues of glycoproteins on the surface of the cells. [^125I]-human eotaxin (available from Amersham) binds specifically to CCR-3 receptors bringing the [^125I]-human eotaxin in close proximity to the SPA beads. Emitted â-particles from the [^125I]-human eotaxin excite, by its proximity, the fluorophore in the beads and produce light.
Preparation of Assay Buffer: 5.96 g HEPES and 7.0 g sodium chloride are dissolved in distilled water and 1 M aqueous CaCl2 (1 ml) and 1M aqueous MgCl2 (5 ml) are added. The pH is adjusted to 7.6 with NaOH and the solution made to a final volume of 1 l using distilled water. 5 g bovine serum albumin and 0.1 g sodium azide are then dissolved in the solution and the resulting buffer stored at 4° C. […]
Preparation of membranes: Confluent rat basophil leukaemia (RBL-2H3) cells stably expressing CCR3 are removed from tissue culture flasks using enzyme-free cell dissociation buffer and resuspended in phosphate-buffered saline. […] The resulting scintillations are counted using a Canberra Packard TopCount, each well being counted for 1 minute. […]

Structure (SMILES)	IC50
O=C(NCCCN1CCC(Oc2ccc(F)cc2)C1)Nc1ccc(F)c(F)c1 (centres unmarked) [Example 3]	446 nM
COc1cccc(NC(=O)NCCCN2CCC(Oc3ccc(F)cc3)C2)c1 (centres unmarked) [Example 2, 1-{3-[3-(4-fluorophenoxy)pyrrolidine-1-yl]propyl}-3-(3-methoxyphenyl)-urea]	270 nM
